# Activity calls are given as the source filed them. No rule for the calls is given here.
# Target: Metabotropic glutamate receptor 5 (Rattus norvegicus) (UniProt P31424)
# Experiment: mGluR5 positive allosteric modulators, SAR follow-up, cell-based, HEK293A, calcium mobilization, rat (AID 588715)
# Details: HEK293A rat mGluR5, Ca2+ mobilization fluorescence, PAM
# Metabotropic glutamate receptor 5 (Rattus norvegicus), sequence (P31424 whole entry, looked up): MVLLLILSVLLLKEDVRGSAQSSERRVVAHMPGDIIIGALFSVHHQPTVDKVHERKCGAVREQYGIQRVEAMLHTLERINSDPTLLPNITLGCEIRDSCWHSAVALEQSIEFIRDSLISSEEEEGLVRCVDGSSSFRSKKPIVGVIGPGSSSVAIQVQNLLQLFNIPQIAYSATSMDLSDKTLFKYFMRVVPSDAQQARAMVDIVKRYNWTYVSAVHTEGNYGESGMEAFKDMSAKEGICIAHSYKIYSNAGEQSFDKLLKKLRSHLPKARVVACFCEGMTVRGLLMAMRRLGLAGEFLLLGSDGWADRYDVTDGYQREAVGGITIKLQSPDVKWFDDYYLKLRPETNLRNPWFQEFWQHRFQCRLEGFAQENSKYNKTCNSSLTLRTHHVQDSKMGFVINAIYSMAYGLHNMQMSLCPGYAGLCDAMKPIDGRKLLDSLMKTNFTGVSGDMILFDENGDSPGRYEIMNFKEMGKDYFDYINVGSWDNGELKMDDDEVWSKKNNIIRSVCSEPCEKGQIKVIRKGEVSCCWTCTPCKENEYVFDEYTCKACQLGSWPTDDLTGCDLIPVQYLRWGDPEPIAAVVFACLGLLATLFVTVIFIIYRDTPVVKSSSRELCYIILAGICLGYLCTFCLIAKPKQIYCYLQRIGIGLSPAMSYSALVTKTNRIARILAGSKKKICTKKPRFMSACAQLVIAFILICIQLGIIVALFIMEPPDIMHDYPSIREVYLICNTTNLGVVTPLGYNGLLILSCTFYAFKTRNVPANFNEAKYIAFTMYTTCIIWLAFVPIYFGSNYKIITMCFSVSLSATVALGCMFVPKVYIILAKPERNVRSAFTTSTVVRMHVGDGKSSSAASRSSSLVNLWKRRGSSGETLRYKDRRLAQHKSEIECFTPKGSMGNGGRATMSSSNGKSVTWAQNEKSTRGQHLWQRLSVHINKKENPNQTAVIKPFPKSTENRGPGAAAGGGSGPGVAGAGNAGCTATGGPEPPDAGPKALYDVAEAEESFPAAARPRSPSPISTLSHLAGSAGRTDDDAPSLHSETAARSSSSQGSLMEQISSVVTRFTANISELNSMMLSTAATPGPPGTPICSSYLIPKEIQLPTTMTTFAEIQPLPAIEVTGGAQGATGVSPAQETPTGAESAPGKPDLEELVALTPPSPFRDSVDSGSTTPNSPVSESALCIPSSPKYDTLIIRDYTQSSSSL
row,EC50 [nM],Compound
1,8,C[C@@H](NC(=O)c1ccc(C#Cc2cccc(F)c2)cn1)C(C)(C)O
2,6,CC(C)(CO)NC(=O)c1ccc(C#Cc2cccc(F)c2)cn1
3,193,O=C(NC1CC(O)C1)c1ccc(C#Cc2cccc(F)c2)cn1 (stereo not drawn)
4,35,CC(C)(C)NC(=O)c1ccc(C#Cc2cccc(F)c2)nc1
5,90,C[C@@H](NC(=O)c1ccc(C#Cc2cccc(F)c2)nc1)C(C)(C)O
6,4820,O=C(NC1COC1)c1ccc(C#Cc2cccc(F)c2)nc1
7,12,O=C(NC1CCC1)c1ccc(C#Cc2cccc(F)c2)cn1
8,213,CC(C)(CO)NC(=O)c1ccc(C#Cc2cccc(F)c2)nc1
9,25,O=C(NC1CCC1)c1ccc(C#Cc2cccc(F)c2)c[n+]1[O-]
10,13,CC(C)(C)NC(=O)c1ccc(C#Cc2cccc(F)c2)cn1
11,409,CC(CO)(CO)NC(=O)c1ccc(C#Cc2cccc(F)c2)cn1

# Second part, the compound before the results:
row,Compound,EC50 [nM]
1,O=C(NC1CCC1)c1ccc(C#CC2CCCC2)cn1,265
2,O=C(c1ccc(C#Cc2cccc(F)c2)nc1)N1CCC(O)CC1,545
3,C[C@@H](NC(=O)c1ccc(C#CC2CC2)cn1)C(C)(C)O,1580
4,O=C(NC1CCC1)c1ccc(C#Cc2cccc(F)c2)nc1,71
5,O=C(COCc1ccncc1)N1CCN(c2ccc(F)cc2Cl)CC1,2280
6,O=C(NC1CCC1)c1ccc(C#CC2CC2)cn1,1280
7,O=C(c1ccc(C#Cc2ccccc2)cc1)N1CCC(O)CC1,523

# Same assay, conditions: HEK293A rat mGluR5, Ca2+ mobilization fluorescence, PAM; at 29.8 µM (top of the series)
row,percent of glutamate ECmax,Compound
1,inactive,O=C(c1ccc(C#Cc2cccc(F)c2)cn1)N1CCCCC1
2,inactive,O=C(O)c1ccc(C#Cc2cccc(F)c2)cn1
3,40,CC1(NC(=O)c2ccc(C#Cc3cccc(F)c3)nc2)COC1
4,inactive,O=C(c1ccc(C#Cc2cccc(F)c2)cn1)N1CCC(O)CC1

# More lines, now with the values behind:
row,Compound,percent of glutamate ECmax
1,O=C(NC1CCC1)c1ccc(C#CC2CC2)c[n+]1[O-],inactive
2,CC1(NC(=O)c2ccc(C#CC3CC3)cn2)COC1,inactive
3,CC1(NC(=O)c2ccc(C#CC3CC3)nc2)COC1,inactive
4,O=C(NC1CC(O)C1)c1ccc(C#CC2CC2)cc1 (stereo not drawn),inactive
5,C[C@@H](NC(=O)c1ccc(C#CC2CC2)cc1)C(C)(C)O,45
6,C[C@@H](NC(=O)c1ccc(C#CC2CC2)nc1)C(C)(C)O,inactive
7,O=C(NC1CC(O)C1)c1ccc(C#CC2CC2)cn1 (stereo not drawn),inactive
8,CC(C)(CO)NC(=O)c1ccc(C#CC2CC2)cc1,inactive
9,CC(C)(CO)NC(=O)c1ccc(C#CC2CC2)cn1,inactive
10,CC1(NC(=O)c2ccc(C#CC3CC3)cc2)COC1,inactive
11,CC(C)(CO)NC(=O)c1ccc(C#CC2CC2)nc1,inactive
